In EP0280610B1, “Dipeptides, preparation process and use in dosing proteases” (SERBIO, priority 1987, dated 1992):

Tests used:
plasmine humaine = assay: Hydrolysis rate of chromogenic substrates by human plasmin (pNA release, OD at 405 nm); format: biochemical; settings: compared with reference product A3; underlying results expressed in ΔOD/minute at 405 nm, TEA buffer pH 8,4
Text: (§1) L'activité des dipeptides suivant l'invention et des tripeptides consignés dans le tableau I a été étudiée sur la thrombine humaine, la plasmine humaine, le Facteur Xa humaine et la Protéine C bovine, les tripeptides A1-A4 étant les substrats de référence du commerce. La libération du marquer HR₁ (i.e. amine H₂NRʹ₁), qui est objectivée par la variation de OD pendant l'hydrolyse enzymatique des substrats, sert d'outil de comparaison.
(§2) La lecture de OD est en général effectuée à 300-470 nm, et plus précisément à 405 nm quand R₁ est pNA, pendant environ 5 minutes.
(§3) Les essais ont été réalisés sur appareil GILFORD 203 S pour automatiser la lecture des échantillons et standardiser leur traitement.
(§4) On prépare des solutions dans du sérum physiologique renfermant chacune un enzyme : thrombine humaine 3 UNIH/ml Facteur Xa humain 3,7 nkat/ml plasmine humaine 2,3 nkat/ml protéine C bovine activée 10µg/ml
(§5) On dissout chaque peptide à tester dans le l'eau à une concentration de 10 mg/ml.
(§6) 400 µl d'enzyme dilué au 1/2 dans du tampon TEA (pH 8,4) sont ajoutés à 200 µl de chacun des différents peptides à tester. On détermine les vitesses d'hydrolyse desdits substrats en suivant l'évolution de la libération de pNA. Cette évolution peut être suivie par la lecture de la varition de OD par unité de temps (ΔOD/minute) à 405 nm.

Protéine C bovine = assay: Hydrolysis rate of chromogenic substrates by activated bovine protein C (pNA release, OD at 405 nm); format: biochemical; settings: compared with reference product A4; underlying results expressed in ΔOD/minute at 405 nm, TEA buffer pH 8,4
Text: as §1, §2, §3, §4, §5, §6

**Q.** With MM-L-4Hyp-L-Arg-pNA, H-TFA [EX 10] as the substance, how does the “sensibilité à la plasmine” value (plasmine humaine) read?
**A.** Its value is “plus sensible à la plasmine que le produit de référence A3”.

**Q.** What about the “sensibilité à la protéine C” value (Protéine C bovine) of the same substance?
**A.** The value was “plus sensibles à la protéine C que le produit de référence A4”.
